Key:
[1] = biological target: T1, recombinant human 5HT6 receptor (Homo sapiens, UniProt P50406); assay: Binding to the 5HT6 serotonin receptor ([3H]-LSD radioligand); conditions: 10^−6 M compound; [3H]-LSD 2.7 nM; HEK-293 cell membranes
T1 construct: purchased Receptor Biology; host or cells: HEK-293 cell membranes
Description: Binding to the 5Ht6 Serotonin Receptor
HEK-293 cell membranes expressing the recombinant human 5HT6 receptor were supplied by Receptor Biology. […] Incubation ends by quick filtration in a Harvester Brandel Cell through fiberglass filters of the Schleicher & Schuell GF 3362 trademark, pretreated with a 0.5% polyethyleneimine solution. […] The vials are left to equilibrate for several hours prior to their counting in a 1414 Wallac Winspectral scintillation counter. […] The assays are carried out in triplicate. The inhibition constants (Ki, nM) are calculated by non-linear regression analysis using the EBDA/LIGAND program [Munson and Rodbard, Analytical Biochemistry, 1980, 107, 220].
Binding of the new compounds of general formula (Ia and Ib and Ic) to the 5-HT6 receptor was determined as previously described.

T1 sequence (P50406 whole entry): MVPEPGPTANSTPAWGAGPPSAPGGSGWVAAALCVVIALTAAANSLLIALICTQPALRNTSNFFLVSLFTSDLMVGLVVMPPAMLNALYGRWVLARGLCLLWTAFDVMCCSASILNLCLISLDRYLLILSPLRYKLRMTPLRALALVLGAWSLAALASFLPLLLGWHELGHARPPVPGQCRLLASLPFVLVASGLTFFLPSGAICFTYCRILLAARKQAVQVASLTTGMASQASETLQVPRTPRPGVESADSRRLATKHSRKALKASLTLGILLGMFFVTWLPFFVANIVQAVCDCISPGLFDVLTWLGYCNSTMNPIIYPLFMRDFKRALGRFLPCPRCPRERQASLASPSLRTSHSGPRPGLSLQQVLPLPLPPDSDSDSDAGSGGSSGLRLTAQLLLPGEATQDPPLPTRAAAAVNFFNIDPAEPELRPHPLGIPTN

| Compound | inhibition at 1 µM [1] | melting point | % Inhibition 10^−6 M [1] |
| --- | --- | --- | --- |
| CN(C)CCn1ccc2c(NS(=O)(=O)c3cc(Cl)cc(Cl)c3)cccc21 [Example 7, N-[1-(2-dimethylaminoethyl)-1H-indole-4-yl]-3,5-dichlorobenzenesulfonamide] | 72.3% | 113 to 118 °C | – |
| CN(C)CCn1ccc2c(NS(=O)(=O)CCc3cccc4ccccc34)cccc21 [Example 5, N-[1-(2-dimethylaminoethyl)-1H-indole-4-yl]-2-(naphthalene-1-yl)-ethanesulfonamide] | – | 47 to 54 °C | – |
| N-[1-(2-dimethylaminoethyl)-1H-indole-4-yl]-naphtalene-2-sulfonamide [Example 2] | – | – | 104.3% |
| CN(C)CCn1ccc2c(NS(=O)(=O)c3ccc(-c4ccccc4)cc3)cccc21 [Example 4, N-[1-(2-dimethylaminoethyl)-1H-indole-4-yl]-4phenylbenzenesulfonamide] | – | 137 to 140 °C | – |
| N-[1-(2-dimethylaminoethyl)-1H-indole-4-yl]-naphtalene-1-sulfonamide [Example 3] | – | – | 94.8% |
| Cc1c(S(=O)(=O)Nc2cccc3c2ccn3CCN(C)C)sc2ccc(Cl)cc12 [Example 1, N-[1-(2-dimethylaminoethyl)-1H-indole-4-yl]-5-chloro-3-methyl-benzo[b]thiophene-2-sulfonamide] | – | 78 to 80 °C | – |

From US8097643B2, “Indol-4 sulfonamide derivatives, their preparation and their use 5-ht-6 as modulators” (Laboratorios del Dr. Esteve S. A., priority 2003, dated 2012)
